Results taken from the supplement of paper PMC10307832.

Compound: CN(C)C/C=C/C(=O)Nc1cc2c(Nc3ccc(F)c(Cl)c3)ncnc2cc1O[C@H]1CCOC1 [Afatinib]
Experiment: relative viability (nuclei count vs DMSO), 5 days (fraction); higher = more cells survive
Procedure, shortened: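 Five library-drug doses, separated by factors of √10, were pinned into 1536-well plates holding lung cancer cell lines after an overnight stay at 37 °C. Cells were fixed, permeabilised and Hoechst-stained in one step after 5 days without medium change, then imaged at 4×. Viability compares treated-well with vehicle-well nuclei, counted in MetaXpress, as a median across plates. Passing plates had control CV below 25% and at least one doubling.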

Cell Line	relative viability (0.005 µM)	relative viability (0.01581 µM)	relative viability (0.05 µM)	relative viability (0.1581 µM)	relative viability (0.5 µM)
COR-L 105	0.522	0.387	0.45	0.287	0.309
LK-2	1.25	0.91	0.926	0.977	0.956
NCI-H727	0.787	0.765	0.758	0.694	0.837
RERF-LC-KJ	0.92	0.938	0.908	0.794	0.831
NCI-H2023	0.968	0.85	0.898	0.882	0.886
NCI-H322M	0.705	0.495	0.533	0.545	0.419
NCI-H1666	0.95	0.894	0.75	0.707	0.801
NCI-H1648	0.881	0.765	0.437	0.478	0.457
NCI-H2087	1.06	0.857	1.04	0.998	0.895
LU99A	1.15	0.984	0.94	0.924	0.975
HCC-366	1.03	1.04	1.03	0.985	0.989
EKVX	0.779	0.718	0.51	0.292	0.334
NCI-H522	0.929	0.785	0.703	0.786	0.735
NCI-H1755	0.997	0.983	1.05	1	1.02
NCI-H647	0.999	0.878	0.998	0.968	1.04
LC-2-ad	1.06	0.957	1.04	0.956	1.05
NCI-H1793	0.829	0.616	0.558	0.418	0.536
HCC-827	0.172	0.169	0.212	0.175	0.162
HCC-78	1.07	0.89	0.898	0.791	0.815
NCI-H2085	0.99	0.958	0.856	0.757	0.858
PC-14	0.371	0.224	0.298		0.282
NCI-H2342	0.896	0.936	0.889	0.826	0.726
A-427	1.05	0.918	0.99	1.02	1.01
H3255	0.418	0.237	0.244	0.244	0.26
HCC-44	1.08	1	1.01	1.02	0.982
NCI-H1734	0.998	0.979	1.02	0.968	1.03

Cell Line	relative viability (0.005 µM)	relative viability (0.01581 µM)	relative viability (0.05 µM)	relative viability (0.1581 µM)	relative viability (0.5 µM)
NCI-H2228	1.24	0.884	0.812	0.953	1.05
ABC-1	0.876	0.77	0.876	0.874	0.912
COR-L23	1.08	0.944	1.11	1.04	1.01
NCI-H661	1.02	0.863	0.831	0.626	0.691
NCI-H1993	0.935	0.75	0.84	0.776	0.692
NCI-H1437	1.02	0.987	0.993	0.984	0.997
UMC-11	1.03	0.955	1.03	0.959	0.983
201T	1.01	0.942	0.944	0.92	0.956
NCI-H358	0.825	0.566	0.455	0.282	0.302
ChaGo-K-1	1.07	1	0.996	0.977	0.999
NCI-H1650	0.755		0.896	0.696	0.736
LOU-NH91	0.784	0.813	0.887	0.73	0.791
HOP-62	1.12	0.989	1.05	1.03	1.08
NCI-H1915	1.06	0.988	1	0.973	0.922
NCI-H3122	0.999	1.01	1.01	0.929	0.999
NCI-H1651	1.07	0.949	0.941	0.961	0.915
EBC-1	1.02	0.976	1.02	0.969	1.01
NCI-H838	1.01	0.966	0.988	0.918	1.05
NCI-H596	1.09	0.913	0.933	0.936	0.928
SK-LU-1	1.07	1	1.07	1.05	1.06
NCI-H441	1.08	0.997	1.18	0.982	0.948
NCI-H650	1.06	0.974	1.07	0.89	0.875
SK-MES-1	0.816	0.706	0.568	0.39	0.42
NCI-H1792	1.09	0.786	0.853	0.988	0.661
NCI-H1355	0.976	0.959	0.943	0.849	0.893
SW 1573	0.978	0.962	1	0.962	0.925

Cell Line	relative viability (0.005 µM)	relative viability (0.01581 µM)	relative viability (0.05 µM)	relative viability (0.1581 µM)	relative viability (0.5 µM)
A549	0.969	1	0.938	0.867	0.858
NCI-H2347	1.07	1.02	0.976	0.961	0.994
LCLC-97TM1	1.1	0.878	1.01	0.993	0.943
EMC-BAC-2	1.12	0.821	1.14	1.01	1.02
NCI-H1975	0.945	0.851	0.79	0.479	0.336
BEN	1.04	0.897	1.05	1.09	1.06
NCI-H1703	1.25	0.749	1.03	0.853	0.713
NCI-H23	1.1	0.976	0.922	0.97	0.792
NCI-H520	1.08	0.978	0.995	1	0.96
CAL-12T	1	0.843	0.748	0.489	0.654
EPLC-272H	0.915	0.687	0.831	0.718	0.718
LCLC-103H	0.962	0.945	0.974	0.945	1.03
NCI-H2405	1.01	0.959	1.08	0.957	1.02
HCC-15	1.04	1.06	1.04	0.979	0.999
PC-3 [JPC-3]	0.553	0.406	0.443	0.439	0.469
NCI-H1944	0.916	0.906	0.794	0.575	0.73
HARA	0.947	0.55	0.471	0.62	0.597
NCI-H1563	0.992	0.932	0.97	0.895	0.99
NCI-H2126	1.01	0.932	0.816	0.679	0.693
LXF-289	1.01	0.97	0.947	0.94	0.94
NCI-H460	1.01	1	0.996	1.01	1
NCI-H1395	1.07	0.744	1	1.05	0.849
NCI-H2170	0.907	0.837	0.445	0.276	0.253
NCI-H2009	1.04	0.998	1.06	0.997	1.06
